# Data published in ChEMBL document CHEMBL1124247, “Synthesis and biological evaluation of 8-deazahomofolic acid and its tetrahydro derivative” (J Med Chem, 1988).
# pIC50: −log10 of the molar value.
# Legend:
# Thymidylate synthase [1] = biological target: Thymidylate synthase (Escherichia coli, UniProt C3SWJ7); assay: Inhibitory activity against thymidylate synthase of Escherichia coli
# Lacticaseibacillus casei [2] = assay: Tested for growth inhibition of Lactobacillus casei (ATCC […]); type: functional, organism-based
# Enterococcus faecium [3] = assay: Tested for growth inhibition of Streptococcus faecium (ATCC 8043); type: functional, organism-based
# Lacticaseibacillus casei [4] = assay: Tested for growth inhibition of Lactobacillus casei (MTX resistant); type: functional, organism-based
# Enterococcus faecium [5] = assay: Tested for growth inhibition of Streptococcus faecium (MTX resistant); type: functional, organism-based
# Thymidylate synthase [6] = biological target: T1, Thymidylate synthase (Lactobacillus casei, UniProt P00469); assay: Inhibitory activity against thymidylate synthase of Lactobacillus casei; parameters: species or system Lacticaseibacillus casei
# T1 sequence (P00469 whole entry): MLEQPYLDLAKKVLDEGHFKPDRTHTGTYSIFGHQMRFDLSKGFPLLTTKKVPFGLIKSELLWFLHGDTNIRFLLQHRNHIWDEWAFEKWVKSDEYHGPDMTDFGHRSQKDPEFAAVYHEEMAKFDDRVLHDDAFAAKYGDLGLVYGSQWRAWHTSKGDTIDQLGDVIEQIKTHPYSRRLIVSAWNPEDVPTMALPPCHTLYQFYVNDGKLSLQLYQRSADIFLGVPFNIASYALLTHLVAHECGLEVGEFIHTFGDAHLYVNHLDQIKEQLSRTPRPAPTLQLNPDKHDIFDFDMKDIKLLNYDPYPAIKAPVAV
# Dihydrofolate reductase = Dihydrofolate reductase (Lactobacillus casei, UniProt P00381); assay: Inhibitory activity against dihydrofolate reductase of Lactobacillus casei; parameters: species or system Lacticaseibacillus casei
# L1210 = assay: Tested for growth inhibition of L1210 leukemia cells; type: functional, cell-based; conditions: Mus musculus
# Sequence of Dihydrofolate reductase (P00381 whole entry): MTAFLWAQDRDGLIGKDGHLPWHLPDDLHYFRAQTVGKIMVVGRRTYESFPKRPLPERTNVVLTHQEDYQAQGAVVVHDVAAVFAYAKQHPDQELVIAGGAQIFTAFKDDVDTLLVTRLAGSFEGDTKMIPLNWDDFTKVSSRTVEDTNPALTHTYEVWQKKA
# Sequence of Thymidylate synthase (Escherichia coli, UniProt C3SWJ7) (C3SWJ7 whole entry): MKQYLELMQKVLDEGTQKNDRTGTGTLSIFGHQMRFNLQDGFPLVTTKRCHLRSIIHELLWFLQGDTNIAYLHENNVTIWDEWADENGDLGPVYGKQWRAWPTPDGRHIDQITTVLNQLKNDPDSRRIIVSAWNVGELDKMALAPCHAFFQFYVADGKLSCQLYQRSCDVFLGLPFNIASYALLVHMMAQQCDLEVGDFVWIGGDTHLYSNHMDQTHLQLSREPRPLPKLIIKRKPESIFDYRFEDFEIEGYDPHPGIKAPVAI
Structure (SMILES),pIC50 (Thymidylate synthase [1]),pIC50 (Lacticaseibacillus casei [2]),pIC50 (Enterococcus faecium [3]),pIC50 (Lacticaseibacillus casei [4]),pIC50 (Enterococcus faecium [5]),pIC50 (Thymidylate synthase [6]),pIC50 (Dihydrofolate reductase),pIC50 (L1210)
Nc1nc(O)c2c(n1)NCC(CCNc1ccc(C(=O)NC(CCC(=O)O)C(=O)O)cc1)N2 (stereo unspecified),5.70,7.89,8.82,–,–,–,–,–
Nc1nc(O)c2nc(CCNc3ccc(C(=O)NC(CCC(=O)O)C(=O)O)cc3)cnc2n1 (stereo unspecified),–,6.66,5.66,–,–,–,–,–
Nc1nc(O)c2nc(CNc3ccc(C(=O)NC(CCC(=O)O)C(=O)O)cc3)ccc2n1 (stereo unspecified),–,8.85,9.52,5.69,6.53,4.85,4.92,5.88
Nc1nc(O)c2nc(CCNc3ccc(C(=O)NC(CCC(=O)O)C(=O)O)cc3)ccc2n1 (stereo unspecified),–,7.72,7.68,6.48,5.96,3.80,3.66,4.06
Nc1nc2c(c(=O)[nH]1)NC(CCNc1ccc(C(=O)NC(CCC(=O)O)C(=O)O)cc1)CC2 (stereo unspecified),–,7.46,7.82,< 4.00,< 4.00,3.47,3.64,4.45
CN(Cc1cnc2nc(N)nc(N)c2n1)c1ccc(C(=O)N[C@@H](CCC(=O)O)C(=O)O)cc1 [METHOTREXATE],–,10.30,9.10,–,5.10,–,–,8.41
Nc1nc(O)c2c(n1)CCC(CNc1ccc(C(=O)NC(CCC(=O)O)C(=O)O)cc1)N2 (stereo unspecified),–,8.57,8.80,< 5.40,5.99,4.12,4.26,–
